ChEMBL document CHEMBL5346870, “Discovery of novel 5-methoxybenzothiophene hydrazides as metabolically stable Clk1 inhibitors with high potency and unprecedented Clk1 isoenzyme selectivity” (Eur J Med Chem, 2023)
Each block holds one compound with its values, some of them ahead of it.

Columns and labels:
[1] = target: T1, Dual specificity protein kinase CLK1 (Homo sapiens, UniProt P49759); conditions: dose 100.0 nM, time 15.0 min
Target sequence in this assay (P49759 whole entry, looked up): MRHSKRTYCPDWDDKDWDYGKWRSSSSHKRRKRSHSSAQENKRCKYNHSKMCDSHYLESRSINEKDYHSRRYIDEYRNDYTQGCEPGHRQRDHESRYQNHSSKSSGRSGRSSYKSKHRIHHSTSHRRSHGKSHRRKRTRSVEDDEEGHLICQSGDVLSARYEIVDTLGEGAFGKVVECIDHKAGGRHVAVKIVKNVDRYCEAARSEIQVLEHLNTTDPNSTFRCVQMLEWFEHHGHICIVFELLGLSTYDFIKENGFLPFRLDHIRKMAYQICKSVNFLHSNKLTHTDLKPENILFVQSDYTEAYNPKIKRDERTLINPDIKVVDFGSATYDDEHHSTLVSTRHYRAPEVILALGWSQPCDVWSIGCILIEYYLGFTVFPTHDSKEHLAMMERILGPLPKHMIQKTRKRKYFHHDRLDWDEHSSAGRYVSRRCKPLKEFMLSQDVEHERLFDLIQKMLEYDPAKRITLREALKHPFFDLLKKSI

NHDF = assay: Cytotoxicity against HDF cells assessed as inhibition of cell growth at 15 uM incubated for 2 days by WST-1 analysis; type: toxicity, cell-based; conditions: human, 48 h, time 2 day
T-24 [2] = assay: Antiproliferative activity against human T24 cells assessed as cell growth inhibition incubated for 3 days by MTT assay; type: functional; conditions: T-24, 72 h, time 3 day
[3] = target: T1, Dual specificity protein kinase CLK1; assay: Inhibition of human CLK1 using GRSRSRSRSRSRSRS as substrate incubated for 15 mins in presence of ATP by gamma32P-ATP based analysis
Target sequence in this assay (P49759 whole entry): as the sequence (P49759 whole entry, looked up) above

[4] = Selectivity index, ratio of inhibition of DYRK1A (unknown origin) to inhibition of CLK1 (unknown origin)
[5] = Metabolic stability in human liver microsomes assessed as half life; type: ADME, Microsome
[6] = Metabolic stability in pooled human liver S9 fraction assessed as half life at 0.3 uM incubated for 120 mins in presence of NADPH regenerating system by LC-MS/MS analysis; type: ADME, subcellular
[7] = target: Dual specificity tyrosine-phosphorylation-regulated kinase 1A (Homo sapiens, UniProt Q13627); assay: Inhibition of DYRK1A (unknown origin) in presence of ATP
[8] = target: Dual specificity protein kinase CLK4 (Homo sapiens, UniProt Q9HAZ1); assay: Inhibition of CLK4 (unknown origin) in presence of ATP
Dual specificity protein kinase CLK4, sequence (Q9HAZ1 whole entry): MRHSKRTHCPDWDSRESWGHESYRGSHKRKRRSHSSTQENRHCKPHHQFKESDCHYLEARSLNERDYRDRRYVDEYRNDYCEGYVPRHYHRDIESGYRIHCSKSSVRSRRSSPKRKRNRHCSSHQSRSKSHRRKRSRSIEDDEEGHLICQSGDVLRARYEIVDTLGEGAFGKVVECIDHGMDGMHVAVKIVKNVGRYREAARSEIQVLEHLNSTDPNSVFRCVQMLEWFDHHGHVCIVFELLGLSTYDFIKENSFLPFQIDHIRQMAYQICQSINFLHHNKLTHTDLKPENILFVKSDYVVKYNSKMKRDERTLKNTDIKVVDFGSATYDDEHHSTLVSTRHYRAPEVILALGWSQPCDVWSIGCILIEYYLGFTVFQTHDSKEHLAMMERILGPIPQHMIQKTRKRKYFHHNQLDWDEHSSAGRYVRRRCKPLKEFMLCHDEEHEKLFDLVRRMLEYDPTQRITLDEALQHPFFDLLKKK

[9] = Cytotoxicity against HDF cells assessed as cell growth inhibition at 15 uM incubated for 2 days by WST-1 analysis relative to control; type: toxicity, cell-based; conditions: human, HDF cells (NHDF, normal human dermal fibroblasts), time 2 day, read-out: GI
[10] = Selectivity index, ratio of IC50 for inhibition of CLK2 (unknown origin) to IC50 for inhibition of CLK1 (unknown origin)
T-24 [11] = assay: Antiproliferative activity against human T24 cells assessed as cell growth inhibition; type: functional

Structure (SMILES): COc1ccc2sc(C(=O)NNc3ccc(F)c(Cl)c3)cc2c1
- inhibition [1]: 27.9%

Structure (SMILES): COc1ccc2sc(C(=O)NNc3ccc(C(C)C)cc3)cc2c1
- inhibition [1]: 3.8%

Structure (SMILES): COc1ccc2sc(C(=O)N(C)Nc3cccc(Cl)c3)cc2c1
- Activity (NHDF): Non-Toxic
- GI50 (T-24 [2]): > 15000 nM

Structure (SMILES): COc1ccc2sc(C(=O)NC(=O)c3cc(Cl)ccc3OC)cc2c1
- Selectivity Index [4]: 60
- half-life [5]: 10 min
- half-life at 0.3 µM [6]: 10.2 min

Structure (SMILES): COc1ccc2sc(C(=O)NNc3cc(F)cc(F)c3)cc2c1
- IC50 [7]: 201 nM
- Activity (NHDF): Non-Toxic
- half-life at 0.3 µM [6]: 56.9 min
- GI50 (T-24 [2]): 8900 nM
- IC50 [8]: 21.1 nM

Structure (SMILES): COc1ccc2sc(C(=O)N(C)Cc3cccc(F)c3)cc2c1
- Selectivity Index [4]: 48.6
- half-life [5]: 10 min
- half-life at 0.3 µM [6]: 17.2 min

Structure (SMILES): COc1ccc2sc(C(=O)NNc3cc(Cl)cc(Cl)c3)cc2c1
- IC50 [7]: 191 nM
- half-life at 0.3 µM [6]: 385 min
- GI50 (T-24 [2]): 3400 nM
- IC50 [8]: 13.4 nM

Structure (SMILES): COc1ccc2sc(C(=O)N(C)N(C)c3cccc(C#N)c3)cc2c1
- inhibition [1]: 62.7%
- IC50 [3]: 32.1 nM

Structure (SMILES): COc1ccc2sc(C(=O)NNc3cc(C(F)(F)F)cc(C(F)(F)F)c3)cc2c1
- inhibition [1]: 22.3%

Structure (SMILES): COc1ccc2sc(C(=O)N(C)N(C)c3cc(F)cc(F)c3)cc2c1
- inhibition [1]: 85%
- inhibition at 48 h, 15 µM [9]: 20.8%
- IC50 [3]: 24.5 nM
- GI50 (T-24 [2]): > 15000 nM

Structure (SMILES): CC(C)(C)c1ccc(C(=O)Nc2cn3cc(-c4cn[nH]c4)ccc3n2)cn1
- Ratio IC50 [10]: 2.2

Structure (SMILES): Cn1cc(-c2ccc3occ(-c4cccc(-c5ccncc5)c4)c3n2)cn1
- Selectivity Index [4]: 26.6
- Ratio IC50 [10]: 2.5

Structure (SMILES): COc1ccc2sc(C(=O)N(C)N(C)c3cccc(Br)n3)cc2c1
- inhibition [1]: 77.2%
- IC50 [3]: 12.9 nM

Structure (SMILES): COc1ccc2sc(C(=O)NNc3cccc(Br)n3)cc2c1
- GI50 (T-24 [2]): 11400 nM

Structure (SMILES): C[C@@H](c1ccc(F)cc1)n1nnc2cnc3ccc(-c4ccc5ocnc5c4)cc3c21
- Selectivity Index [4]: 69

Structure (SMILES): COc1ccc2sc(C(=O)N(C)N(C)c3cc(Cl)cc(Cl)c3)cc2c1
- inhibition [1]: 66.3%
- IC50 [3]: 63.5 nM

Structure (SMILES): COc1ccc2sc(C(=O)NNc3ccc(F)c(F)c3)cc2c1
- inhibition [1]: 17.7%

Structure (SMILES): COc1ccc2sc(C(=O)NNc3ccc([N+](=O)[O-])cc3)cc2c1
- inhibition [1]: 7.2%

Structure (SMILES): COc1ccc2sc(C(=O)NNc3nc(OC)ncc3F)cc2c1
- inhibition [1]: 0%

Structure (SMILES): CNc1ncc2cc3cnccc3c([N+](=O)[O-])c2n1
- Selectivity Index [4]: 34

Structure (SMILES): COc1ccc2sc(C(=O)N(C)N(C)c3cccc(Br)c3)cc2c1
- inhibition [1]: 68.1%
- IC50 [3]: 73.8 nM

Structure (SMILES): COc1ccc2sc(C(=O)NNc3ccc(C(F)(F)F)cc3)cc2c1
- inhibition [1]: 0%

Structure (SMILES): COc1ccc2sc(C(=O)N(C)Cc3cc(F)cc(F)c3)cc2c1
- inhibition at 48 h, 15 µM [9]: 9.16%
- half-life [5]: 10 min
- half-life at 0.3 µM [6]: 9.9 min
- GI50 (T-24 [2]): 1780 nM
- GI50 (T-24 [11]): 430 nM

Structure (SMILES): COc1ccc2sc(C(=O)N(C)N(C)c3cccc(N)c3)cc2c1
- inhibition [1]: 51.2%
- IC50 [3]: 97.4 nM

Structure (SMILES): COc1ccc2sc(C(=O)N(C)N(C)c3cccc([N+](=O)[O-])c3)cc2c1
- inhibition [1]: 47.8%

The next lines start with results.

- inhibition [1]: 73.1%
- IC50 [3]: 5.4 nM
Structure (SMILES): COc1ccc2sc(C(=O)NNc3cccc(C#N)c3)cc2c1
- Activity (NHDF): Non-Toxic
- GI50 (T-24 [2]): 10000 nM

- inhibition [1]: 4.1%
Structure (SMILES): COc1ccc2sc(C(=O)NNc3ccc(F)cc3F)cc2c1

- inhibition [1]: 0%
Structure (SMILES): COc1ccc2sc(C(=O)NNc3ncccc3Cl)cc2c1

- inhibition [1]: 68.4%
- IC50 [3]: 85.6 nM
Structure (SMILES): COc1ccc2sc(C(=O)NNc3cccc([N+](=O)[O-])c3)cc2c1

- inhibition [1]: 38.1%
Structure (SMILES): COc1ccc2sc(C(=O)NNc3ccccc3)cc2c1

- inhibition [1]: 49%
Structure (SMILES): COc1ccc2sc(C(=O)NNc3cccc(N)c3)cc2c1

- inhibition [1]: 18.6%
Structure (SMILES): COc1ccc2sc(C(=O)NNc3ccccc3F)cc2c1

- inhibition [1]: 5%
Structure (SMILES): COc1ccc2sc(C(=O)NNc3ccc(F)cc3)cc2c1

- inhibition [1]: 29.5%
Structure (SMILES): COc1ccc2sc(C(=O)NNc3ccccc3Cl)cc2c1

- inhibition [1]: 29.9%
Structure (SMILES): COc1ccc2sc(C(=O)NNc3cccc(C)c3)cc2c1

- inhibition [1]: 30.4%
Structure (SMILES): COc1ccc2sc(C(=O)NNc3ccc(Cl)cc3Cl)cc2c1

- inhibition [1]: 28.9%
Structure (SMILES): COc1ccc2sc(C(=O)NNc3ccccn3)cc2c1

- inhibition [1]: 84.6%
- IC50 [3]: 37.7 nM
Structure (SMILES): COc1ccc2sc(C(=O)NNc3cccc(Br)c3)cc2c1

- inhibition [1]: 12.8%
Structure (SMILES): COc1ccc2sc(C(=O)NNc3ccc(Cl)cc3)cc2c1

- inhibition [1]: 21.3%
Structure (SMILES): COc1ccc2sc(C(=O)NNc3ccc(Br)cc3)cc2c1

- inhibition [1]: 18.4%
- IC50 [3]: > 100 nM
Structure (SMILES): COc1ccc2sc(C(=O)NNc3ccc(C#N)cc3)cc2c1
- Activity (NHDF): Non-Toxic
- GI50 (T-24 [2]): > 15000 nM

- inhibition [1]: 86.8%
- IC50 [3]: 3.7 nM
Structure (SMILES): COc1cccc(NNC(=O)c2cc3cc(OC)ccc3s2)c1
- Activity (NHDF): Non-Toxic
- GI50 (T-24 [2]): > 15000 nM

- inhibition [1]: 0%
Structure (SMILES): COc1ccc2sc(C(=O)NNc3ccc(C)cc3C)cc2c1

- inhibition [1]: 16.9%
Structure (SMILES): COc1ccc2sc(C(=O)NNc3ccc(I)cc3)cc2c1

- inhibition [1]: 0%
Structure (SMILES): COc1ccc2sc(C(=O)NNc3c(Cl)cccc3Cl)cc2c1

- inhibition [1]: 25.9%
Structure (SMILES): COc1ccc2sc(C(=O)NNc3ccc(C)c(Cl)c3)cc2c1

- inhibition [1]: 6.2%
Structure (SMILES): COc1ccc2sc(C(=O)NNc3ccccc3Br)cc2c1

- inhibition [1]: 70.5%
- IC50 [3]: 66.5 nM
Structure (SMILES): COc1ccc2sc(C(=O)NNc3cccc(F)c3)cc2c1

- inhibition [1]: 63%
- IC50 [3]: 73 nM
Structure (SMILES): COc1ccc2sc(C(=O)NNc3cccc(C(F)(F)F)c3)cc2c1
